“Also recorded” adds a separate entry of the source.
Tests used:
[1] = 2,4-D/dendrimer formulation stability study (crystallisation at 0° C.); format: physicochemical; conditions: for Crystallisation After 7 Days at 0° C. With Seeding: 2,4-D Amine 625 g/l seeded with 2,4-D Amine salt; for Crystallisation After 7 Days at 0° C.: without seeding
Description: 20 ml of 2,4-D Amine(2,4-D 625 g/l market sample, Rygel, Adama Australia) was transferred to 25 ml clear vials and dendrimer added (with or without 30% Dithethylene Glycol). Caps were tightened to ensure no moisture entered the vials. Formulations were placed in a freezer at 0° C. […] In a related experiment, formulations were prepared with seeding with 2,4-D Amine salt (Shanghai Biochemical Sci. Ltd., purity 98 in order to hasten rate of crystallisation. The results are provided in Table 2.

[2] = Dynamic viscosity of aqueous dendrimer solution (Brookfield); format: physicochemical; conditions: aqueous solution 7% dendrimer and 3% DEG, ambient temperature, spindle no. 63 at 50 rpm
Description: 50 g aqueous solution of dendrimer (7% dendrimer and 3% DEG) was prepared in deionized water in a beaker, and subjected to dynamic viscosity measurement using Brookfield viscometer at ambient temperature. Viscosity studies were conducted using spindle no. 63 at 50 rpm. It was observed that viscosity of Compound-1 solution was 1.8 cps and Compound-4 solution was 0.6 cps.

[3] = 2,4-D Amine 625 g/l, dendrimer 2%
[4] = 2,4-D Amine 625 g/l, dendrimer 5%
[5] = 2,4-D Amine 625 g/l, dendrimer 10%

SMILES: OCCN(CCO)CC(O)COCC(COCC(O)CN(CCO)CCO)(COCC(O)CN(CCO)CCO)COCC(COCC(O)CN(CCO)CCO)(COCC(O)CN(CCO)CCO)COCC(O)CN(CCO)CCO (centres unmarked) [Compound 4, 9,9′-(Oxybis(methylene))bis(9-((3-(bis(2-hydroxyethyl)amino)-2-hydroxypropoxy)methyl)-3,15-bis(2-hydroxyethyl)-7,11-dioxa-3,15-diazaheptadecane-1,5,13,17-tetraol)]
- Crystallisation After 7 Days at 0° C. With Seeding ([1]; dendrimer 1.4%, Diethylene Glycol 0.6%): Crystallised
- Crystallisation After 7 Days at 0° C. With Seeding ([1]; dendrimer 2%): Crystallised
- Crystallisation After 7 Days at 0° C. With Seeding ([1]; dendrimer 3.5%, Diethylene Glycol 1.5%): Crystallised
- Crystallisation After 7 Days at 0° C. With Seeding ([1]; dendrimer 5%): Crystallised
- Crystallisation After 7 Days at 0° C. With Seeding ([1]; dendrimer 7%, Diethylene Glycol 3%): remained stable; also recorded: No, Clear
- Crystallisation After 7 Days at 0° C. With Seeding ([1]; dendrimer 10%): remained stable; also recorded: No, Clear
- Crystallisation at 0° C. without seeding ([1]; 2,4-D Amine 625 g/l, all levels of dendrimer tested): did not result in crystallisation
- Crystallisation After 14 Days at 0° C. ([1]; 2,4-D Amine 625 g/l, dendrimer 1.4%, Diethylene Glycol 0.6%): Crystallised
- Crystallisation After 14 Days at 0° C. [1, 3]: Crystallised
- Crystallisation After 14 Days at 0° C. ([1]; 2,4-D Amine 625 g/l, dendrimer 3.5%, Diethylene Glycol 1.5%): No
- Crystallisation After 14 Days at 0° C. [1, 4]: Crystallised
- Crystallisation After 14 Days at 0° C. ([1]; 2,4-D Amine 625 g/l, dendrimer 7%, Diethylene Glycol 3%): No
- Crystallisation After 14 Days at 0° C. [1, 5]: No
- Crystallisation After 7 Days at 0° C. [1, 3]: No
- Crystallisation After 7 Days at 0° C. [1, 4]: No
- Crystallisation After 7 Days at 0° C. [1, 5]: No
- Dynamic viscosity [2]: 0.6 cps

Reference: patent publication US10981858B2, “Dendrimer and formulations thereof” (Priostar Pty Ltd, priority 2015, dated 2021)
